The source of these data is ChEMBL document CHEMBL1649285, “In vivo efficacy of 1- and 2-gram human simulated prolonged infusions of doripenem against Pseudomonas aeruginosa” (Antimicrob Agents Chemother, 2009).

What all share (format): functional
The test system of assay [1] is Pseudomonas aeruginosa. The experiment in a line: Antimicrobial activity against Pseudomonas aeruginosa isolate 1036 by broth microdilution method.
Assay [2] concerns Pseudomonas aeruginosa. Kind of assay: Antimicrobial activity against Pseudomonas aeruginosa isolate 944 by broth microdilution method. (Dilution methods test growth across graded concentrations, often in twofold steps.)
For assay [3], the system named is Pseudomonas aeruginosa. Kind of assay: Antimicrobial activity against Pseudomonas aeruginosa isolate 1050 by broth microdilution method.
Assay [4] relates to Pseudomonas aeruginosa. The experiment in a line: Antimicrobial activity against Pseudomonas aeruginosa isolate 1060 by broth microdilution method.
The subject of assay [5] is Pseudomonas aeruginosa. Kind of assay: Antimicrobial activity against Pseudomonas aeruginosa isolate 1095 by broth microdilution method.
For assay [6], the system named is Pseudomonas aeruginosa. Kind of assay: Antimicrobial activity against Pseudomonas aeruginosa isolate 22 by broth microdilution method.
Assay [7] deals with Pseudomonas aeruginosa. The experiment in a line: Antimicrobial activity against Pseudomonas aeruginosa isolate 878 by broth microdilution method.
Assay [8] deals with Pseudomonas aeruginosa. The experiment in a line: Antimicrobial activity against Pseudomonas aeruginosa isolate 896 by broth microdilution method.
The test system of assay [9] is Pseudomonas aeruginosa. Kind of assay: Antimicrobial activity against Pseudomonas aeruginosa isolate 988 by broth microdilution method.
Assay [10] has as its system Pseudomonas aeruginosa. The experiment in a line: Antimicrobial activity against Pseudomonas aeruginosa isolate 1006 by broth microdilution method.
Assay [11] relates to Pseudomonas aeruginosa. The experiment in a line: Antimicrobial activity against Pseudomonas aeruginosa isolate 856 by broth microdilution method.
In assay [12] the test system is Pseudomonas aeruginosa. Kind of assay: Antimicrobial activity against Pseudomonas aeruginosa isolate 913 by broth microdilution method.
The test system of assay [13] is Pseudomonas aeruginosa. The experiment in a line: Antimicrobial activity against Pseudomonas aeruginosa isolate 927 by broth microdilution method.
Assay [14] concerns Pseudomonas aeruginosa. The experiment in a line: Antimicrobial activity against Pseudomonas aeruginosa isolate 968 by broth microdilution method.
Assay [15] has as its system Pseudomonas aeruginosa. Kind of assay: Antimicrobial activity against Pseudomonas aeruginosa isolate 971 by broth microdilution method.
For assay [16], the system named is Pseudomonas aeruginosa. Kind of assay: Antimicrobial activity against Pseudomonas aeruginosa isolate 821 by broth microdilution method.
The subject of assay [17] is Pseudomonas aeruginosa. The experiment in a line: Antimicrobial activity against Pseudomonas aeruginosa isolate 1080 by broth microdilution method.
For assay [18], the system named is Pseudomonas aeruginosa. Kind of assay: Antimicrobial activity against Pseudomonas aeruginosa isolate 1093 by broth microdilution method.
Assay [19] deals with Pseudomonas aeruginosa. The experiment in a line: Antimicrobial activity against Pseudomonas aeruginosa isolate 1036 by broth microdilution method in presence of beta-lactamase inhibitor Tazobactam.
For assay [20], the system named is Pseudomonas aeruginosa. The experiment in a line: Antimicrobial activity against Pseudomonas aeruginosa isolate 944 by broth microdilution method in presence of beta-lactamase inhibitor Tazobactam.
The test system of assay [21] is Pseudomonas aeruginosa. Kind of assay: Antimicrobial activity against Pseudomonas aeruginosa isolate 1050 by broth microdilution method in presence of beta-lactamase inhibitor Tazobactam.
Assay [22] relates to Pseudomonas aeruginosa. Kind of assay: Antimicrobial activity against Pseudomonas aeruginosa isolate 1060 by broth microdilution method in presence of beta-lactamase inhibitor Tazobactam.
Assay [23] concerns Pseudomonas aeruginosa. Kind of assay: Antimicrobial activity against Pseudomonas aeruginosa isolate 1095 by broth microdilution method in presence of beta-lactamase inhibitor Tazobactam.
The subject of assay [24] is Pseudomonas aeruginosa. Kind of assay: Antimicrobial activity against Pseudomonas aeruginosa isolate 22 by broth microdilution method in presence of beta-lactamase inhibitor Tazobactam.
Assay [25] concerns Pseudomonas aeruginosa. The experiment in a line: Antimicrobial activity against Pseudomonas aeruginosa isolate 878 by broth microdilution method in presence of beta-lactamase inhibitor Tazobactam.
Assay [26] deals with Pseudomonas aeruginosa. Kind of assay: Antimicrobial activity against Pseudomonas aeruginosa isolate 896 by broth microdilution method in presence of beta-lactamase inhibitor Tazobactam.
For assay [27], the system named is Pseudomonas aeruginosa. The experiment in a line: Antimicrobial activity against Pseudomonas aeruginosa isolate 988 by broth microdilution method in presence of beta-lactamase inhibitor Tazobactam.
Assay [28] relates to Pseudomonas aeruginosa. The experiment in a line: Antimicrobial activity against Pseudomonas aeruginosa isolate 1006 by broth microdilution method in presence of beta-lactamase inhibitor Tazobactam.
Assay [29] relates to Pseudomonas aeruginosa. The experiment in a line: Antimicrobial activity against Pseudomonas aeruginosa isolate 856 by broth microdilution method in presence of beta-lactamase inhibitor Tazobactam.
Assay [30] deals with Pseudomonas aeruginosa. Kind of assay: Antimicrobial activity against Pseudomonas aeruginosa isolate 913 by broth microdilution method in presence of beta-lactamase inhibitor Tazobactam.
The subject of assay [31] is Pseudomonas aeruginosa. The experiment in a line: Antimicrobial activity against Pseudomonas aeruginosa isolate 927 by broth microdilution method in presence of beta-lactamase inhibitor Tazobactam.
Assay [32] has as its system Pseudomonas aeruginosa. Kind of assay: Antimicrobial activity against Pseudomonas aeruginosa isolate 968 by broth microdilution method in presence of beta-lactamase inhibitor Tazobactam.
Assay [33] has as its system Pseudomonas aeruginosa. Kind of assay: Antimicrobial activity against Pseudomonas aeruginosa isolate 971 by broth microdilution method in presence of beta-lactamase inhibitor Tazobactam.
In assay [34] the test system is Pseudomonas aeruginosa. The experiment in a line: Antimicrobial activity against Pseudomonas aeruginosa isolate 821 by broth microdilution method in presence of beta-lactamase inhibitor Tazobactam.
The test system of assay [35] is Pseudomonas aeruginosa. The experiment in a line: Antimicrobial activity against Pseudomonas aeruginosa isolate 1080 by broth microdilution method in presence of beta-lactamase inhibitor Tazobactam.
In assay [36] the test system is Pseudomonas aeruginosa. Kind of assay: Antimicrobial activity against Pseudomonas aeruginosa isolate 1093 by broth microdilution method in presence of beta-lactamase inhibitor Tazobactam.

In general, MIC refers to the smallest concentration in the dilution series that meets the test's criterion for growth inhibition.

≈ marks a conversion by molar mass, not a printed value.

For the compound `NC[C@H]1O[C@H](O[C@H]2[C@H](O)[C@@H](O[C@H]3O[C@H](CO)[C@@H](O)[C@H](N)[C@H]3O)[C@H](N)C[C@@H]2N)[C@H](N)C[C@@H]1O` [TOBRAMYCIN], the MIC was 0.125 µg/mL (≈ 0.267 µM) in assay [1]; 96 µg/mL (≈ 205 µM) in assay [2]; 16 µg/mL (≈ 34.2 µM) in assay [3]; 0.75 µg/mL (≈ 1.6 µM) in assay [4]; 2 µg/mL (≈ 4.28 µM) in assay [5]; 0.5 µg/mL (≈ 1.07 µM) in assay [6]. Moreover, the MIC came to 1.5 µg/mL (≈ 3.21 µM) in [7]; 24 µg/mL (≈ 51.3 µM) in assay [8]; 64 µg/mL (≈ 137 µM) in assay [9]; 3 µg/mL (≈ 6.42 µM) in assay [10]; 32 µg/mL (≈ 68.4 µM) in [11]; 96 µg/mL (≈ 205 µM) in [12]. The MIC turned out to be 3 µg/mL (≈ 6.42 µM) in [13]; 96 µg/mL (≈ 205 µM) in assay [14]; 1.5 µg/mL (≈ 3.21 µM) in [15]; 3 µg/mL (≈ 6.42 µM) in [16]; 3 µg/mL (≈ 6.42 µM) in assay [17]; 2 µg/mL (≈ 4.28 µM) in [18].
As to `CCN1CCN(C(=O)N[C@@H](C(=O)N[C@@H]2C(=O)N3[C@@H]2SC(C)(C)[C@@H]3C(=O)O)c2ccccc2)C(=O)C1=O` [PIPERACILLIN], the minimal inhibitory concentration (MIC) in assay [19] worked out at 3 µg/mL; in [20], 8 µg/mL; in assay [21], 8 µg/mL; in [22], 4 µg/mL; in [23] it was 12 µg/mL; in [24], 32 µg/mL. Moreover, the MIC was at least 256 µg/mL in [25]; at least 256 µg/mL in assay [26]; 64 µg/mL in assay [27]; 16 µg/mL in [28]; at least 256 µg/mL in [29]; at least 256 µg/mL in assay [30]. Further, the minimal inhibitory concentration (MIC) in assay [31] was 32 µg/mL; in [32], 16 µg/mL; in assay [33] it was at least 256 µg/mL; in assay [34], 64 µg/mL; in [35], 16 µg/mL; in assay [36], 6 µg/mL.
On to `CC(C)(O/N=C(\C(=O)N[C@@H]1C(=O)N2C(C(=O)[O-])=C(C[n+]3ccccc3)CS[C@H]12)c1csc(N)n1)C(=O)O` [CEFTAZIDIME], for which the MIC in [1] worked out at 2 µg/mL (≈ 3.66 µM); in [2], 4 µg/mL (≈ 7.32 µM); in assay [3] it was 3 µg/mL (≈ 5.49 µM); in assay [4], 2 µg/mL (≈ 3.66 µM); in [5] it was 16 µg/mL (≈ 29.3 µM); in assay [6], 16 µg/mL (≈ 29.3 µM). Also, the MIC was 12 µg/mL (≈ 22 µM) in assay [7]; 12 µg/mL (≈ 22 µM) in assay [8]; 6 µg/mL (≈ 11 µM) in [9]; 4 µg/mL (≈ 7.32 µM) in assay [10]; over 256 µg/mL in assay [11]; 24 µg/mL (≈ 43.9 µM) in [12]. The minimal inhibitory concentration (MIC) in [13] was found to be 8 µg/mL (≈ 14.6 µM); in assay [14], 24 µg/mL (≈ 43.9 µM); in assay [15], 48 µg/mL (≈ 87.8 µM); in assay [16] it was 64 µg/mL (≈ 117 µM); in assay [17] it was 16 µg/mL (≈ 29.3 µM); in assay [18], 4 µg/mL (≈ 7.32 µM).
`CO/N=C(\C(=O)N[C@@H]1C(=O)N2C(C(=O)[O-])=C(C[N+]3(C)CCCC3)CS[C@H]12)c1csc(N)n1` [CEFEPIME]: the MIC in assay [1] was determined as 12 µg/mL (≈ 25 µM); in assay [2], 16 µg/mL (≈ 33.3 µM); in assay [3], 4 µg/mL (≈ 8.32 µM); in assay [4] it was 2 µg/mL (≈ 4.16 µM); in assay [6] it was 16 µg/mL (≈ 33.3 µM); in assay [7] it was 24 µg/mL (≈ 49.9 µM). Moreover, the MIC in [8] was 12 µg/mL (≈ 25 µM); in assay [9] it was 12 µg/mL (≈ 25 µM); in assay [10] it was 4 µg/mL (≈ 8.32 µM); in assay [11], over 256 µg/mL; in assay [12] it was 12 µg/mL (≈ 25 µM); in assay [13], 24 µg/mL (≈ 49.9 µM). Moreover, the MIC is 32 µg/mL (≈ 66.6 µM) in assay [14]; 32 µg/mL (≈ 66.6 µM) in [15]; over 256 µg/mL in assay [16]; 64 µg/mL (≈ 133 µM) in [17]; 64 µg/mL (≈ 133 µM) in [18].
In the case of `C[C@@H](O)[C@H]1C(=O)N2C(C(=O)O)=C(S[C@@H]3CN[C@H](C(=O)N(C)C)C3)[C@H](C)[C@H]12` [MEROPENEM], the MIC in [1] was 4 µg/mL (≈ 10.4 µM); in [2], 12 µg/mL (≈ 31.3 µM); in assay [3], at least 32 µg/mL; in assay [4], 4 µg/mL (≈ 10.4 µM); in [5] it was 4 µg/mL (≈ 10.4 µM); in assay [6] it was 16 µg/mL (≈ 41.7 µM). Also, the MIC in assay [7] was at least 32 µg/mL; in [8], 12 µg/mL (≈ 31.3 µM); in assay [9] it was 16 µg/mL (≈ 41.7 µM); in assay [10] it was at least 32 µg/mL; in assay [11], at least 32 µg/mL; in assay [12] it was at least 32 µg/mL. Moreover, the MIC in [13], in assay [14], in [15], in assay [16], in [17] and in [18] was at least 32 µg/mL each time.
On to `O=C(O)c1cn(C2CC2)c2cc(N3CCNCC3)c(F)cc2c1=O` [CIPROFLOXACIN], for which the minimum inhibitory concentration (MIC) is 3 µg/mL (≈ 9.05 µM) in assay [1]; 4 µg/mL (≈ 12.1 µM) in assay [2]; over 32 µg/mL in assay [3]; over 32 µg/mL in [7]; 4 µg/mL (≈ 12.1 µM) in assay [9]; over 32 µg/mL in assay [11]. In addition, the MIC in [13], in assay [14], in assay [15], in [16], in assay [17] and in assay [18] was over 32 µg/mL in each case.
